Source: patent US9346769B2, “Tetrazolones as inhibitors of fatty acid synthase” (Infinity Pharmaceuticals, Inc., priority 2010, dated 2016)

molecular target: T1, human FASN (Homo sapiens, UniProt P49327); test: FASN Scintillation Proximity Flashplate Assay; assay type: biochemical; conditions: human FASN purified from SKBR3 cells; unstarred symbols
T1 construct: was purified from SKBR3 cells using procedures modified from those in Jayakumar et al; endogenous in cells; host or cells: SKBR3 human breast cancer cells (ATCC); Endogenous enzyme purified by ammonium sulfate precipitation and a mono Q column
T1 sequence (P49327 whole entry): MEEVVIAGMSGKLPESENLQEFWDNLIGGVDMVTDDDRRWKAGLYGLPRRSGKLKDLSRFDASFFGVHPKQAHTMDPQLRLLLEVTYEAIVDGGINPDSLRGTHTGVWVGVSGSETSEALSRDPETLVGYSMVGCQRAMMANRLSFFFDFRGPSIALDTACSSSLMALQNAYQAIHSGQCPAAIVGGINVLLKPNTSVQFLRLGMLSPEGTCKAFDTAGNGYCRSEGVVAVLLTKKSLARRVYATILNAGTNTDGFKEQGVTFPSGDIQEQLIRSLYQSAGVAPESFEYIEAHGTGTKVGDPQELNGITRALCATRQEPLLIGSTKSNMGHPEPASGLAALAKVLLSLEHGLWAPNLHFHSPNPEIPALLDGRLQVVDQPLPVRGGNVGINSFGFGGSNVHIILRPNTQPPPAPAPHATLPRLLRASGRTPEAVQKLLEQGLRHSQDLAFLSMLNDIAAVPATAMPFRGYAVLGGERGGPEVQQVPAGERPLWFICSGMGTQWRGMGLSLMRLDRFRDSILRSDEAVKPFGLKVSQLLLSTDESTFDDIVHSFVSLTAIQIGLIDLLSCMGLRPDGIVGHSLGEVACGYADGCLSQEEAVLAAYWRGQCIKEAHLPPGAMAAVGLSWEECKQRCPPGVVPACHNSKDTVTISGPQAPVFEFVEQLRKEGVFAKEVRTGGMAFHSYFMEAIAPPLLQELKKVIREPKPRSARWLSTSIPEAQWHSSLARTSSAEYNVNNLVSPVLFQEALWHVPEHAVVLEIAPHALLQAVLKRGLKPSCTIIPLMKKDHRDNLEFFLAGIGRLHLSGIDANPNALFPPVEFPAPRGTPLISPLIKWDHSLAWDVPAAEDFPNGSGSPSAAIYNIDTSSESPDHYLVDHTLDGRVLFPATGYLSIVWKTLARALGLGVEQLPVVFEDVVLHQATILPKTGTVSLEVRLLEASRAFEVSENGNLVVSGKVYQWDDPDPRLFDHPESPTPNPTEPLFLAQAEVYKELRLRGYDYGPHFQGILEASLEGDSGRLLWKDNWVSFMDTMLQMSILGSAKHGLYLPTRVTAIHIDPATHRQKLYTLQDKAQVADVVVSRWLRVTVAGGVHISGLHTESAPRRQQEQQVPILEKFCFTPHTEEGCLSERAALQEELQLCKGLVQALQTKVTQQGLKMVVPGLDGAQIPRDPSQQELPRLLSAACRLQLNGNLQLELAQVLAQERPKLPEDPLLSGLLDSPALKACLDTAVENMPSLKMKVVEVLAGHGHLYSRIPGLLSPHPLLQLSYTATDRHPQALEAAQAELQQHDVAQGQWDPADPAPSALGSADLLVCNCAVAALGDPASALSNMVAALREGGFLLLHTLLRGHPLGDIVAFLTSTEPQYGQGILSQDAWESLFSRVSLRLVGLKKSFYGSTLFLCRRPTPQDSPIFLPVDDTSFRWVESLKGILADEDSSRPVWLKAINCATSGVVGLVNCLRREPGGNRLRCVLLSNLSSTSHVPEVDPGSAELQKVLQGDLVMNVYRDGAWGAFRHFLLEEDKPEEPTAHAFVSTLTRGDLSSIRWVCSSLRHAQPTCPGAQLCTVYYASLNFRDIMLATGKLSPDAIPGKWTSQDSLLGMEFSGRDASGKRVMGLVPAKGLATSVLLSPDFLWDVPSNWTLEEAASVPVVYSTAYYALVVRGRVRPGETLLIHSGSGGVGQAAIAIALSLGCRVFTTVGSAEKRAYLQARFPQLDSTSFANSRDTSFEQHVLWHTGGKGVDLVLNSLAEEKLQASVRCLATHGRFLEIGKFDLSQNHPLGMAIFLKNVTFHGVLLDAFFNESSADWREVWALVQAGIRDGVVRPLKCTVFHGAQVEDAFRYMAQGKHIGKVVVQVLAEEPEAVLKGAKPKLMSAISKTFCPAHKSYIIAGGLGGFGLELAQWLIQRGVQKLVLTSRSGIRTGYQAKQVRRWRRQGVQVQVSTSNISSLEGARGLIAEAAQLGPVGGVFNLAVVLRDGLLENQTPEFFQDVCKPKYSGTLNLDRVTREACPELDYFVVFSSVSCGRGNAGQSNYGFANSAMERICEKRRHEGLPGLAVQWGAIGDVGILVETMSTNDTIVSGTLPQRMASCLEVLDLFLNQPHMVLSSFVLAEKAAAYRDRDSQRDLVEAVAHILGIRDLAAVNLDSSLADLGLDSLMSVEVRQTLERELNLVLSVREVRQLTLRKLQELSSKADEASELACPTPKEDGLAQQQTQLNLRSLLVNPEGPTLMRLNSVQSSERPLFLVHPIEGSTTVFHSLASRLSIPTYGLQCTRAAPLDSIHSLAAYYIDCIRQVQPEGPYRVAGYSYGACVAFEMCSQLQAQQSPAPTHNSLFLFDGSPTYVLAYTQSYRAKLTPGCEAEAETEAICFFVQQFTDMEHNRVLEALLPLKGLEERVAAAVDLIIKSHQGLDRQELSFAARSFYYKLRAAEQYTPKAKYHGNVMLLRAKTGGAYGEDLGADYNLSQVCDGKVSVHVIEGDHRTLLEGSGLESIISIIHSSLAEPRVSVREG
Summary of the method: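 Human FASN purified from SKBR3 cells (1 nM final) preincubated with compound 30 min at 37 °C in phosphate buffer pH 7.0, then reacted 2 h at 37 °C with 100 μM acetyl-CoA plus [3H]-acetyl-CoA, 300 μM malonyl-CoA, 2 mM NADPH. Stopped with orlistat; scintillation-proximity CPM gave % inhibition, four-parameter IC50.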

IC50 [nM] | Structure (SMILES)
< 15 | COCCOc1cccc(F)c1-n1nnn(C(=O)N(c2ccc(OC)c(C(=O)O)c2)C2CCCCC2)c1=O
< 15 | CC(C)(C)OC(=O)Nc1ccc(N(C(=O)n2nnn(-c3c(F)cccc3F)c2=O)C2CCCCC2)cc1C(=O)O
< 15 | CCN(C(=O)n1nnn(-c2c(F)cccc2F)c1=O)c1ccc(C(=O)O)cc1Oc1ccccc1
15 to 100 | COc1ccc(N(C(=O)n2nnn(-c3c(F)cccc3F)c2=O)C2CCCCC2)c(OC)c1C(=O)O
< 15 | CCN(C(=O)n1nnn(-c2c(F)cccc2OC)c1=O)c1ccccc1OCCc1ccccc1
15 to 100 | COc1ccc(N(C(=O)n2nnn(-c3cccc4nsnc34)c2=O)C2CCCCC2)cc1C(=O)O
< 15 | COc1ccccc1-n1nnn(C(=O)N(c2ccc(Br)cc2)c2ccc(C(=O)O)cc2)c1=O
< 15 | O=C(NCc1ccccc1)c1cccc(N(C(=O)n2nnn(-c3c(F)cccc3F)c2=O)C2CCCCC2)c1
< 15 | O=C(O)c1ccc(N(C(=O)n2nnn(-c3c(F)cccc3F)c2=O)C2CCCCC2)cn1
